From article PMC3447335, “Evaluation of Pseudopteroxazole and Pseudopterosin Derivatives against Mycobacterium tuberculosis and Other Pathogens” (Marine Drugs, 2012)
In brackets after ≈: the same amount, converted by molar mass.

Tests used:
[1] = tested on: M. tuberculosis H37Rv (ATCC 27294); assay: Microplate Alamar blue assay (MABA); format: cell-based, Mycobacterium tuberculosis; conditions: for SI (Selectivity Index): (Vero Cell IC50)/(M. tuberculosis MIC); for MIC: Mycobacterium tuberculosis
[2] = tested on: M. tuberculosis H37Rv (ATCC 27294); assay: microbe, parasite or virus in culture; format: cell-based, Mycobacterium tuberculosis; conditions: Mycobacterium tuberculosis; for inhibition at 64 µg/mL: % inhibition at 64 μg/mL, read-out: LORA % inh; for MIC: read-out: LORA MIC
Vero cells = assay: cells; conditions: Chlorocebus sabaeus; for cytotoxicity at 128 µg/mL: read-out: Vero cell (% inh); for IC50: read-out: Vero cell IC50
NCI-60 cell line = conditions: cited from earlier work
M. tuberculosis H37Rv [3] = tested on: M. tuberculosis H37Rv; design: method as in PMID 12828474; conditions: natural 2 isolated from P. elisabethae, at 12.5 μg/mL (40 μM); cited from earlier work
MRSA = assay: Microbroth dilution antibiotic susceptibility assay; format: cell-based; conditions: Staphylococcus aureus, read-out: IC50 MRSA
VRE = assay: as above; format: cell-based, Enterococcus faecium; conditions: Enterococcus, read-out: IC50 VRE
[4] = tested on: M. smegmatis (ATCC 12051); assay: as above; format: cell-based; conditions: Mycolicibacterium smegmatis, ATCC12051; microbroth dilution; read-out: MIC M. smegmatis
[5] = tested on: M. diernhoferi (ATCC 19340); assay: as above; format: cell-based; conditions: Mycolicibacterium diernhoferi, ATCC19340; microbroth dilution; read-out: MIC M. diernhoferi
M. tuberculosis H37Rv [6] = tested on: M. tuberculosis H37Rv; design: method as in PMID 9145860; conditions: comparison values; cited from earlier work
[7] = M. tuberculosis H37Rv (ATCC 27294), replicating, read-out: MABA MIC
[8] = non-replicating persistent model

## CC(C)=C[C@@H]1C[C@H](C)[C@H]2CC[C@H](C)c3c2c1c(C)c1ncoc31 [Compound 1, pseudopteroxazole]
[1]
  SI (Selectivity Index): >8.6
[1]; [7]
  MIC: 15 µg/mL (≈ 48.5 µM)
[1]; wild-type M. tuberculosis H37Rv, Table 2 experiment, read-out: MABA MIC H37Rv
  MIC: 7 µg/mL (≈ 22.6 µM)
[2]
  inhibition at 64 µg/mL: 99.7%
[2]; [8]
  MIC: 50 µg/mL
[2]; value given in μM
  MIC: 162 µM
Vero cells
  cytotoxicity at 128 µg/mL: 0%
  IC50: > 128 µg/mL
NCI-60 cell line
  cytotoxicity against the NCI-60 cell line assay: no significant cytotoxicity

## CCCCCc1nc2c(C)c3c4c(c2o1)[C@@H](C)CC[C@@H]4[C@@H](C)C[C@H]3C=C(C)C [Compound 2, homopseudopteroxazole]
[1]; [7]
  MIC: > 128 µg/mL
[1]; semi-synthetic material, MABA
  activity against M. tuberculosis H37Rv: not active
[2]
  inhibition at 64 µg/mL: 22.6%
Vero cells
  cytotoxicity at 128 µg/mL: 0%
  IC50: > 128 µg/mL
M. tuberculosis H37Rv [3]
  inhibition against M. tuberculosis H37Rv: 80%

## COc1cc(CC=C(C)C)c(CC=C(C)C)c(OC)c1O [Compound 15, 2,6-Dimethoxy-3,4-bis(3-methylbut-2-enyl)phenol]
[1]
  SI (Selectivity Index): 1.1
[1]; [7]
  MIC: 59 µg/mL (≈ 203 µM)
[2]
  inhibition at 64 µg/mL: 99.7%
[2]; [8]
  MIC: 58 µg/mL
MRSA
  IC50: 20 µg/mL (≈ 68.9 µM)
VRE
  IC50: 3 µg/mL (≈ 10.3 µM)
[4]
  MIC: 8 µg/mL (≈ 27.5 µM)
[5]
  MIC: 8 µg/mL (≈ 27.5 µM)
Vero cells
  IC50: 64 µg/mL (≈ 220 µM)

## COc1c(O)c(OC)c(CC=C(C)C)c(CC=C(C)C)c1CC=C(C)C [Compound 16, 2,6-Dimethoxy-3,4,5-tris(3-methylbut-2-enyl)phenol]
[1]
  SI (Selectivity Index): >2.3
[1]; [7]
  MIC: 56 µg/mL (≈ 156 µM)
[2]
  inhibition at 64 µg/mL: 79.7%
MRSA
  IC50: > 128 µg/mL
VRE
  IC50: 3 µg/mL (≈ 8.37 µM)
[4]
  MIC: > 128 µg/mL
[5]
  MIC: 8 µg/mL (≈ 22.3 µM)
Vero cells
  cytotoxicity at 128 µg/mL: 29%
  IC50: > 128 µg/mL

## COc1ccc(CC=C(C)C)c(OC)c1O[C@@H]1O[C@H](CO)[C@H](O)[C@H](O)[C@H]1O [Compound 20, 2,6-Dimethoxy-3-(3-methylbut-2-enyl)phenol-β-D-galactopyranoside]
[1]; [7]
  MIC: > 128 µg/mL
[2]
  inhibition at 64 µg/mL: -24.8%
MRSA
  IC50: > 128 µg/mL
VRE
  IC50: > 128 µg/mL
[4]
  MIC: > 128 µg/mL
[5]
  MIC: > 128 µg/mL
Vero cells
  IC50: 82 µg/mL (≈ 213 µM)

## N[C@@H]1CON=C1O [cycloserine]
M. tuberculosis H37Rv [6]
  MIC of first and second line TB treatments: 122 to 490 µM

## CC[C@@H](CO)NCCN[C@@H](CC)CO [ethambutol]
M. tuberculosis H37Rv [6]
  MIC of first and second line TB treatments: 4.6 to 9.2 µM

## NC[C@H]1O[C@H](O[C@H]2[C@H](O)[C@@H](O[C@H]3O[C@H](CO)[C@@H](O)[C@H](N)[C@H]3O)[C@H](N)C[C@@H]2N)[C@H](O)[C@@H](O)[C@@H]1O [kanamycin]
M. tuberculosis H37Rv [6]
  MIC of first and second line TB treatments: 2.5 to 10.3 µM

## capreomycin
M. tuberculosis H37Rv [6]
  MIC of first and second line TB treatments: 0.94 to 3.7 µM
